Legend:
herpes virus = assay type: cell-based; details: for % cell death after 72 h TCID50 herpes virus infection: protease 0.5 μg/ml, Vero cells, serum free medium, virus control 56.0 ± 2.3
influenza virus = assay type: cell-based; details: for % cell death after 72 h TCID50 influenza virus infection: protease 0.5 μg/ml, MDCK cells, serum free medium, virus control 48.21 ± 6.77

Substance | % increase in herpes virus growth compared to controls (herpes virus) | % cell death after 72 h TCID50 herpes virus infection (herpes virus) [%] | % increase in influenza viral growth compared to virus control (influenza virus) | % cell death after 72 h TCID50 influenza virus infection (influenza virus) [%]
MMP-3: purified human MMP 3 (stromelysin-1), AnaSpec | +7.57% | 64.16 ± 4.29 | −8.49% | 
MMP-10: purified human MMP-10 (stromelysin 2), AnaSpec | +25.82% | 70.46 ± 5.41 | +8.26% | 52.19 ± 7.56
MMP-7: purified human MMP7 (proenzyme), AnaSpec | +1.96% | 57.10 ± 6.68 | +50.92% | 72.76 ± 5.96
MMP-1: purified human MMP 1 (interstitial and fibroblast collagenase), AnaSpec | +8.43% | 66.32 ± 7.11 | +63.87% | 47.76 ± 7.26

Reference: US8709506B2, “Synergistic compositions for the treatment of topical viral infections” (Vitro Bio Sarl, priority 2010, dated 2014)
